Where no end group is shown, it is not given here.
What was measured:
db/db mice = test: Blood glucose in db/db mice after intravenous dosing; type: in vivo; settings: six week old db/db mice, 0.5-4 hours post-dosing, MMB dose 100-fold lower than peptide dose
Experimental: Blood glucose was monitored 0.5, 1, 2, 3, and 4 hours post-dosing.

female beagle dogs = test: Gastric emptying in normal dogs; type: in vivo; settings: lidamidine 0.63 mg/kg sc 60 minutes before the meal; GLP-1 MMB 0.1 mg/kg iv 15 minutes before the meal
Experimental: A gastric cannula was surgically implanted into female beagle dogs (10-15 kg) under general anesthesia and allowed to recover for at least 2 weeks. Dogs were fasted for 24 hours after which water was freely available. The gastric cannula was opened and gastric juice and food remnants were removed with 40-50 ml of lukewarm water. Groups of six dogs were dosed subcutaneously with lidamidine, an alpha2 agonist (0.63 mg/kg), 60 minutes before the meal, a positive control for delay of gastric emptying. […] Five minutes before the meal, the gastric cannula was opened to determine the amount of fluid present in stomach for baseline value and fluid was promptly reintroduced. Then a test meal consisting of 250 ml of a glucose solution (5 g/l) was administered via the cannula and allowed to remain in the stomach for 30 minutes. Gastric contents were drained from the stomach to measure total volume after 30 minutes. […] Glucose concentrations were evaluated for collected samples and used to determine the absolute amount of glucose remaining in the stomach at each time point. The percentage of glucose retained in the stomach was determined from the starting value and the concentration of glucose at each time point and plotted as a function of time. The time at which 50% of the gastric contents were retained was determined by fitting of the curves to a single exponential.

[1] = administered subcutaneously; cited from earlier work
RINm cells = test: Insulin secretion in RINm cells; type: cell-based; settings: peptides 0-5 nM, mimetibodies 5 or 50 nM, ELISA
Experimental: To test the effect of GLP-1 MMB in insulin secretion, RINm cells were treated with increasing concentrations of GLP-1 (7-36) peptide (0-5 nM), exendin-4 peptide (0-5 nM), or various GLP-1 mimetibodies (5 or 50 nM) and the amount of insulin secreted was measured via ELISA. All GLP-1 MMBs tested had activities in stimulating insulin secretion in RINm cells (FIG. 6).

wild type mice [2] = test: Glucose tolerance test (ipGTT) in wild type mice; type: in vivo; settings: single iv GLP-1 MMB 1 mg/kg, exendin-4 0.07 mg/kg
wild type mice [3] = test: Food intake in wild type mice; type: in vivo; settings: single iv GLP-1 MMB 1 mg/kg, exendin-4 0.07 mg/kg
wild type mice [4] = test: Gastric emptying in wild type mice; type: in vivo; settings: iv GLP-1 MMB 1 mg/kg, exendin-4 0.07 mg/kg
Experimental: (§1) Materials/Methods: Animals: Male GLP-1R−/− and age matched wild type mice were randomized into three treatment groups (n=5) based on body weight and fasting blood glucose. […] The next morning mice were re-fed for 1 h, food intake was recorded and the mice were deprived of food for the rest of the study. Mice were dosed intravenously as discussed above. Two hours post-dosing mice were euthanized. The stomach was exposed by laparotomy, ligated at both the pylorus and cardia and removed. The stomach content wet weight was measured. Equation 1 was used to calculate the percent of food remaining in the stomach.
(§2) (Stomach Content Wet Weight(g)/Food Intake(g))*100 Equation (1)

GLP-1R−/− mice [5] = test: Gastric emptying in GLP-1R−/− mice; type: in vivo; settings: iv GLP-1 MMB 1 mg/kg, exendin-4 0.07 mg/kg
Experimental: as §1, §2

GLP-1R−/− mice [6] = test: Food intake in GLP-1R−/− mice; type: in vivo; settings: single iv GLP-1 MMB 1 mg/kg, exendin-4 0.07 mg/kg

## CC[C@H](C)[C@H](NC(=O)[C@H](Cc1ccccc1)NC(=O)[C@H](CCC(=O)O)NC(=O)[C@H](CCCCN)NC(=O)[C@H](C)NC(=O)[C@H](C)NC(=O)[C@H](CCC(N)=O)NC(=O)CNC(=O)[C@H](CCC(=O)O)NC(=O)[C@H](CC(C)C)NC(=O)[C@H](Cc1ccc(O)cc1)NC(=O)[C@H](CO)NC(=O)[C@H](CO)NC(=O)[C@@H](NC(=O)[C@H](CC(=O)O)NC(=O)[C@H](CO)NC(=O)[C@@H](NC(=O)[C@H](Cc1ccccc1)NC(=O)[C@@H](NC(=O)CNC(=O)[C@H](CCC(=O)O)NC(=O)[C@H](C)NC(=O)[C@@H](N)Cc1c[nH]cn1)[C@@H](C)O)[C@@H](C)O)C(C)C)C(=O)N[C@@H](C)C(=O)N[C@@H](Cc1c[nH]c2ccccc12)C(=O)N[C@@H](CC(C)C)C(=O)N[C@H](C(=O)N[C@@H](CCCCN)C(=O)NCC(=O)N[C@@H](CCCNC(=N)N)C(N)=O)C(C)C [GLP-1 peptide]
db/db mice
  blood glucose: lowered blood glucose at 30 minutes

## CN=C(N)NC(=O)Nc1c(C)cccc1C [lidamidine]
Female beagle dogs
  time in which 50% of the gastric contents were emptied: 30.60 ± 6.47 min

## GLP-1 (7-36) amide: GLP-1 (7-36) amide
[1]
  time action: about 50 minutes

## GLP-1 (7-36) peptide: wide-type GLP-1 (7-36) peptide (HAEGTFTSDVSSYLEGQAAKEFIAWLVKGR; ends and bridges not checked; UniProt P01275 98-127, looked up)
RINm cells
  stimulation of insulin secretion in RINm cells: stimulates insulin release

## exendin-4 [reference compound]
Wild type mice [2]
  area under the curve (AUC) of the ipGTT: statistically significant reduction in the AUC
Wild type mice [3]
  24 hour cumulative food intake vs CNTO1996: statistically significant reduction in food intake
Wild type mice [4]
  stomach content (percent of food remaining) 2 h after dosing vs CNTO1996: statistically significant increase in stomach content
RINm cells
  stimulation of insulin secretion in RINm cells: stimulates insulin release
GLP-1R−/− mice [5]
  gastric emptying 2 h after dosing: no effect on gastric emptying
GLP-1R−/− mice [6]
  24 hour cumulative food intake: no effect on food intake
